# Source: patent US10856562B2, “Flavor composition and edible compositions containing same” (MARS, INCORPORATED, priority 2013, dated 2020)
# Square brackets hold non-standard residues; d marks the D form. Ends that are not written are not given here. pGlu = O=C1CC[C@@H](C(=O)O)N1
# Assays:
# [1] = system: panelists; assay: Consensus attribute scores of flavor enhancers in Uncle Ben's Garden Vegetable Ready rice; format: in vivo, human; design: key to Cooked White Rice / Vegetable Oil / Vegetable Complex / Cooked Green Vegetable / Cooked Corn / Sweet (BASIC TASTES) / Salt (BASIC TASTES) / Mouthdrying (Texture) / Residual Mouthcoating (Texture) / Total Aromatics / Bitter (BASIC TASTES): 15-point scale, 0 = none, 15 = very strong; conditions: for Bitter (BASIC TASTES) / Black Pepper / Cooked Corn / Cooked Green Vegetable / Cooked White Rice / Dehydrated onion/garlic / HVP/Brothy / Mineral/Flint / Mouthdrying (Texture) / Residual Mouthcoating (Texture) / Salt (BASIC TASTES) / Salt Burn (Chemical Feeling Factors) / Sweet (BASIC TASTES) / Total Aromatics / Umami (Chemical Feeling Factors) / Vegetable Complex / Vegetable Oil: rice
# Method: Descriptive attributes (e.g., taste, flavor and chemical feeling factors) of three use levels of pGlu-Cys (FE-35), pGlu-Cys-Gly (FE-36), pGlu-Cys-Cys (FE-37), pGlu-Cys-Val (FE-38) and pGlu-Val-Cys (UE-30) flavor composition peptides were determined. The three use levels were as follows: 1.0 ppb, 10.0 ppb and 100.0 ppb.
# Data was collected for the attributes of the product in-mouth for the use levels according to the following protocol: • The samples were analyzed for flavor by six to nine members of a panel, trained and experienced in flavor evaluation using the Spectrum™ method. Samples were evaluated across multiple panel sessions. • The strength of each attribute was rated on a 15-point scale, where 0=none and 15=very strong. • This scale incorporates the ability to use tenths of a point and therefore has the potential of 150 scale differentiations. • The scale may be expanded beyond 15 points to include extreme ratings if necessary.
# Preparation of Rice Samples • Each flavor enhancer was tested in Uncle Ben's Garden Vegetable Ready rice matrix at 3 different concentrations: 1 ppb, 10 ppb and 100 ppb. A total of 15 points with flavor enhancers were prepared for sensory evaluation. Additionally, 15 control samples were prepared. Each point had 2 samples (test and control) and was made from one pouch of rice. • Directions to prepare the solutions: • The 15 ready- to eat pouches were microwaved according to the procedure found on the back of the pouch: (1) squeeze pouch to separate rice, (2) tear two inches to vent, (3) heat on High for 90 seconds and (4) remove from microwave using COOL TOUCH area on untorn side. • From each pouch 124.75 g (test sample) and 99.8 g (control) were weighed out. The test sample had the flavor enhancer and/or salt. The control sample only had salt added. • The flavor enhancer and/or salt (non-iodized salt) were weighed in a soufflé cup. The weighed amount of flavor enhancer and/or salt was added to the sub-sampled rice. The rice was stirred and mixed to evenly distribute the salt added. • Some rice was placed back into the soufflé cup, sealed, and the cup was shook to get the flavor enhancer and/or salt that may have been stuck on the walls of the soufflé cup. After shaking the soufflé cup, the rice was added back to the original sub-sampled rice and stirred/mixed again. • Each sample (test and control) was microwaved for another 30 seconds (or until warm) to ensure that the salts/compounds were going completely into the solutions. • All samples (test and control) were tasted at the same temperature. • Each test sample had 0.2% NaCl added and flavor enhancers at the specified concentrations.
# A summary of the concentrations of NaCl and flavor composition peptides in the rice samples is described in table 23. The first value of each cell represents a single sample amount of an ingredient in milligrams, and the second number in parenthesis is a doubling of the ingredient (in grams) for use in a doubled size sample.
# The panelists evaluated each sample for the attributes described by table 25.
# [2] = system: panel of trained tasters; assay: Saltiness of 25% sodium-reduced food products with peptides, panel of trained tasters; format: in vivo, human; conditions: for Saltiness compared to control / Saltiness/flavor compared to control: 10 ppb each, n=4; for Saltiness/flavor compared to control: control 350 mg
# Method: Food product compositions were prepared by admixing flavor composition peptide(s) of the present application with food compositions, wherein the level of sodium (NaCl) in the food product compositions was reduced. The level of sodium was reduced by 25%, 50% or 75% compared to food products compositions that were not admixed with flavor composition peptides. The food product compositions comprising the flavor composition peptides were tasted by a panel of trained tasters and the level of saltiness was compared to the control food products.
# The peptides pGlu-Val-Leu (identified as “SE-13”), pGlu-Val-Cys (identified as “UE-30”), pGlu-Val-Val (identified as “SE-17”) and pGlu-Cys-Cys (identified as “FE-37”) were tested in cottage cheese, tortilla chips, ketchup, cream of mushroom soup, alfredo sauce, sausage, mixed nuts, peanuts, soy sauce and chicken broth. The level of sodium in the test food products comprising the peptides was reduced by 25% compared to the control food products.
# [3] = Chicken Broth, control 860 mg, test 645 mg Na
substance,measurement,setting,value
[pGlu]-Cys-Val [FE-38],Cooked green vegetable in rice compared to the Control,[1]; 1 & 100 ppb,low level of cooked green vegetable
same,Bitter in rice,"[1]; all samples (1, 10, 100 ppb)",bitter
same,"Mineral/flint note in rice, not seen in the Control","[1]; all samples (1, 10, 100 ppb)",low mineral/flint note
same,"Mouthdrying in rice, not seen in the Control","[1]; all samples (1, 10, 100 ppb)",have mouthdrying
same,Salt burn feeling factor in rice compared to the Control,"[1]; all samples (1, 10, 100 ppb)",higher
same,Umami feeling factor in rice compared to the Control,"[1]; all samples (1, 10, 100 ppb)",higher
same,Bitter (BASIC TASTES),[1]; 1.0 ppb (5 ppm),0.8
same,Black Pepper,[1]; 1.0 ppb (5 ppm),1.0
same,Cooked Corn,[1]; 1.0 ppb (5 ppm),0.8
same,Cooked Green Vegetable,[1]; 1.0 ppb (5 ppm),0.8
same,Cooked White Rice,[1]; 1.0 ppb (5 ppm),3.0
same,Dehydrated onion/garlic,[1]; 1.0 ppb (5 ppm),1.0
same,HVP/Brothy,[1]; 1.0 ppb (5 ppm),1.0
same,Mineral/Flint,[1]; 1.0 ppb (5 ppm),1.0
same,Mouthdrying (Texture),[1]; 1.0 ppb (5 ppm),1.8
same,Residual Mouthcoating (Texture),[1]; 1.0 ppb (5 ppm),1.0
same,Salt (BASIC TASTES),[1]; 1.0 ppb (5 ppm),13.8
same,Salt Burn (Chemical Feeling Factors),[1]; 1.0 ppb (5 ppm),1.0
same,Sweet (BASIC TASTES),[1]; 1.0 ppb (5 ppm),3.5
same,Total Aromatics,[1]; 1.0 ppb (5 ppm),6.3
same,Umami (Chemical Feeling Factors),[1]; 1.0 ppb (5 ppm),2.0
same,Vegetable Complex,[1]; 1.0 ppb (5 ppm),1.5
same,Vegetable Oil,[1]; 1.0 ppb (5 ppm),0.8
same,Bitter (BASIC TASTES),[1]; 10.0 ppb (50 ppm),1.2
same,Black Pepper,[1]; 10.0 ppb (50 ppm),1.0
same,Cooked Corn,[1]; 10.0 ppb (50 ppm),1.0
same,Cooked Green Vegetable,[1]; 10.0 ppb (50 ppm),0.0
same,Cooked White Rice,[1]; 10.0 ppb (50 ppm),3.0
same,Dehydrated onion/garlic,[1]; 10.0 ppb (50 ppm),0.8
same,HVP/Brothy,[1]; 10.0 ppb (50 ppm),1.0
same,Mineral/Flint,[1]; 10.0 ppb (50 ppm),1.5
same,Mouthdrying (Texture),[1]; 10.0 ppb (50 ppm),2.0
same,Residual Mouthcoating (Texture),[1]; 10.0 ppb (50 ppm),1.0
same,Salt (BASIC TASTES),[1]; 10.0 ppb (50 ppm),13.0
same,Salt Burn (Chemical Feeling Factors),[1]; 10.0 ppb (50 ppm),1.0
same,Sweet (BASIC TASTES),[1]; 10.0 ppb (50 ppm),3.3
same,Total Aromatics,[1]; 10.0 ppb (50 ppm),6.0
same,Umami (Chemical Feeling Factors),[1]; 10.0 ppb (50 ppm),2.0
same,Vegetable Complex,[1]; 10.0 ppb (50 ppm),1.0
same,Vegetable Oil,[1]; 10.0 ppb (50 ppm),1.0
same,Bitter (BASIC TASTES),[1]; 100 ppb (50 ppm),0.8
same,Black Pepper,[1]; 100 ppb (50 ppm),1.0
same,Cooked Corn,[1]; 100 ppb (50 ppm),0.8
same,Cooked Green Vegetable,[1]; 100 ppb (50 ppm),0.8
same,Cooked White Rice,[1]; 100 ppb (50 ppm),3.0
same,Dehydrated onion/garlic,[1]; 100 ppb (50 ppm),1.0
same,HVP/Brothy,[1]; 100 ppb (50 ppm),1.5
same,Mineral/Flint,[1]; 100 ppb (50 ppm),1.0
same,Mouthdrying (Texture),[1]; 100 ppb (50 ppm),2.5
same,Residual Mouthcoating (Texture),[1]; 100 ppb (50 ppm),1.0
same,Salt (BASIC TASTES),[1]; 100 ppb (50 ppm),13.5
same,Salt Burn (Chemical Feeling Factors),[1]; 100 ppb (50 ppm),1.3
same,Sweet (BASIC TASTES),[1]; 100 ppb (50 ppm),3.5
same,Total Aromatics,[1]; 100 ppb (50 ppm),6.5
same,Umami (Chemical Feeling Factors),[1]; 100 ppb (50 ppm),3.0
same,Vegetable Complex,[1]; 100 ppb (50 ppm),1.5
same,Vegetable Oil,[1]; 100 ppb (50 ppm),0.8
[pGlu]-Val-Cys [UE-30],Mouthdrying in rice,[1]; 10 and 100 ppb,low mouthdrying
same,Cooked green vegetable in rice compared to the Control,"[1]; all samples (1, 10, 100 ppb)",low level of cooked green vegetable
same,Salt burn feeling factor in rice compared to the Control,"[1]; all samples (1, 10, 100 ppb)",higher
same,Salt in rice compared to the Control,"[1]; all samples (1, 10, 100 ppb)",saltier than the Control
same,Umami feeling factor in rice compared to the Control,"[1]; all samples (1, 10, 100 ppb)",higher
same,Black Pepper,[1]; 1.0 ppb (5 ppm),1.3
same,Cooked Corn,[1]; 1.0 ppb (5 ppm),0.8
same,Cooked Green Vegetable,[1]; 1.0 ppb (5 ppm),0.8
same,Cooked White Rice,[1]; 1.0 ppb (5 ppm),3.0
same,Dehydrated onion/garlic,[1]; 1.0 ppb (5 ppm),1.0
same,HVP/Brothy,[1]; 1.0 ppb (5 ppm),1.5
same,Mineral/Flint,[1]; 1.0 ppb (5 ppm),0.0
same,Mouthdrying (Texture),[1]; 1.0 ppb (5 ppm),0.0
same,Residual Mouthcoating (Texture),[1]; 1.0 ppb (5 ppm),1.0
same,Salt (BASIC TASTES),[1]; 1.0 ppb (5 ppm),15.0
same,Salt Burn (Chemical Feeling Factors),[1]; 1.0 ppb (5 ppm),1.0
same,Sweet (BASIC TASTES),[1]; 1.0 ppb (5 ppm),3.0
same,Total Aromatics,[1]; 1.0 ppb (5 ppm),6.8
same,Umami (Chemical Feeling Factors),[1]; 1.0 ppb (5 ppm),1.5
same,Vegetable Complex,[1]; 1.0 ppb (5 ppm),1.5
same,Vegetable Oil,[1]; 1.0 ppb (5 ppm),0.8
same,Black Pepper,[1]; 10.0 ppb (50 ppm),1.5
same,Cooked Corn,[1]; 10.0 ppb (50 ppm),1.0
same,Cooked Green Vegetable,[1]; 10.0 ppb (50 ppm),1.0
same,Cooked White Rice,[1]; 10.0 ppb (50 ppm),3.0
same,Dehydrated onion/garlic,[1]; 10.0 ppb (50 ppm),1.0
same,HVP/Brothy,[1]; 10.0 ppb (50 ppm),1.5
same,Mineral/Flint,[1]; 10.0 ppb (50 ppm),0.5
same,Mouthdrying (Texture),[1]; 10.0 ppb (50 ppm),1.8
same,Residual Mouthcoating (Texture),[1]; 10.0 ppb (50 ppm),1.0
same,Salt (BASIC TASTES),[1]; 10.0 ppb (50 ppm),15.0
same,Salt Burn (Chemical Feeling Factors),[1]; 10.0 ppb (50 ppm),0.8
same,Sweet (BASIC TASTES),[1]; 10.0 ppb (50 ppm),3.5
same,Total Aromatics,[1]; 10.0 ppb (50 ppm),6.8
same,Umami (Chemical Feeling Factors),[1]; 10.0 ppb (50 ppm),2.0
same,Vegetable Complex,[1]; 10.0 ppb (50 ppm),1.8
same,Vegetable Oil,[1]; 10.0 ppb (50 ppm),0.8
same,Black Pepper,[1]; 100 ppb (50 ppm),1.5
same,Cooked Corn,[1]; 100 ppb (50 ppm),1.0
same,Cooked Green Vegetable,[1]; 100 ppb (50 ppm),1.0
same,Cooked White Rice,[1]; 100 ppb (50 ppm),3.0
same,Dehydrated onion/garlic,[1]; 100 ppb (50 ppm),1.0
same,HVP/Brothy,[1]; 100 ppb (50 ppm),1.5
same,Mineral/Flint,[1]; 100 ppb (50 ppm),0.5
same,Mouthdrying (Texture),[1]; 100 ppb (50 ppm),1.5
same,Residual Mouthcoating (Texture),[1]; 100 ppb (50 ppm),1.5
same,Salt (BASIC TASTES),[1]; 100 ppb (50 ppm),16.0
same,Salt Burn (Chemical Feeling Factors),[1]; 100 ppb (50 ppm),1.3
same,Sweet (BASIC TASTES),[1]; 100 ppb (50 ppm),3.5
same,Total Aromatics,[1]; 100 ppb (50 ppm),6.8
same,Umami (Chemical Feeling Factors),[1]; 100 ppb (50 ppm),3.0
same,Vegetable Complex,[1]; 100 ppb (50 ppm),1.8
same,Vegetable Oil,[1]; 100 ppb (50 ppm),0.5
[pGlu]-Val-Leu [SE-13],Saltiness compared to control,[2]; [3],Test samples saltier than
same,Saltiness/flavor compared to control,"[2]; Cottage Cheese, test 262 mg Na",Test samples notably less
same,Saltiness compared to SE-17,"[2]; Ketchup, test 120 mg Na",SE-13 more salty than
same,Saltiness compared to control,"[2]; Tortilla Chips, control 103 mg, test 77 mg Na",Test samples saltier than
[pGlu]-Val-Val [SE-17],Saltiness compared to control,[2]; [3],Test samples saltier than
same,Saltiness/flavor compared to control,"[2]; Cottage Cheese, test 262 mg Na",Test samples notably less
same,Preference among test samples,"[2]; Cottage Cheese, test 262 mg Na, compared to SE-13 and SE-13 + UE-30",combination preferred
